The results in this text go back to patent US11236105B2, “Bicyclic compounds and methods of use” (BioTheryX, Inc., priority 2017, dated 2022).

The test deals with TNF-α. Put plainly: Cell-Based TNFα Inhibition Assay (PBMCs induced with LPS, Meso Scale). The following applies: PBMCs pretreated 1 hr, induced with LPS 100 ng/mL 18-24 hrs, supernatant TNF-α; for inhibition at 0.1 µM / inhibition at 1 µM: PBMC; for inhibition at 0.1 µM / % TNFα Inhibition (0.1 μM): 0.1 μM compound; for inhibition at 1 µM / % TNFα Inhibition (1 μM): 1 μM compound. On the procedure: Cell-Based TNFα Inhibition Assay
PBMCs induced with LPS (lipopolysaccharide): Frozen […] blood mononuclear cells (PBMCs) are purchased from AllCells. Cells are quick thawed, washed once with Roswell Park Memorial Institute medium (RPMI)-1640/10% FBS/1% Penicillin/1% Streptomycin and plated in 96 well plates at 200,000 cells per well. Cells are pretreated with DMSO only or the indicated compounds for 1 hr and then induced with […] for 18-24 hrs. The supernatant is analyzed for TNF-α using Meso Scale assay according to manufacturer's protocol. The negative control wells are treated with DMSO. Compound activity is measured as a percentage of the DMSO control.

Molecules are shown by their SMILES. Bounds are passed on as bounds.

`CCOc1cc([C@@H](CS(C)(=O)=O)N2C(=O)c3csc(NC(=O)C(C)(C)C)c3C2=O)ccc1OC` [Compound 2, (S)—N-(5-(1-(3-ethoxy-4-methoxyphenyl)-2-(methylsulfonyl)ethyl)-4,6-dioxo-5,6-dihydro-4H-thieno[3,4-c]pyrrol-1-yl)pivalamide]: the inhibition at 0.1 µM is under 20% and the inhibition at 1 µM was over 60%.
On to `CCOc1cc([C@@H](CS(C)(=O)=O)N2C(=O)c3scc(NC(=O)C4CC4)c3C2=O)ccc1OC` [Compound 11, (S)—N-(5-(1-(3-ethoxy-4-methoxyphenyl)-2-(methylsulfonyl)ethyl)-4,6-dioxo-5,6-dihydro-4H-thieno[2,3-c]pyrrol-3-yl)cyclopropanecarboxamide], for which the inhibition at 0.1 µM was under 20% and the inhibition at 1 µM lay within 20 to 40%.
`CCOc1cc([C@@H](CS(C)(=O)=O)N2Cc3c(NC(=O)C(F)(F)F)csc3C2=O)ccc1OC` [Compound 30, (S)—N-(5-(1-(3-ethoxy-4-methoxyphenyl)-2-(methylsulfonyl)ethyl)-6-oxo-5,6-dihydro-4H-thieno[2,3-c]pyrrol-3-yl)-2,2,2-trifluoroacetamide]: the inhibition at 0.1 µM was under 20% and the inhibition at 1 µM was under 20%.
For `CCOc1cc([C@@H](CS(C)(=O)=O)N2Cc3c(NC(=O)C4CC4)csc3C2=O)ccc1OC` [Compound 32, (S)—N-(5-(1-(3-ethoxy-4-methoxyphenyl)-2-(methylsulfonyl)ethyl)-6-oxo-5,6-dihydro-4H-thieno[2,3-c]pyrrol-3-yl)cyclopropanecarboxamide], the inhibition at 0.1 µM is under 20% and the inhibition at 1 µM lay within 20 to 40%.
Turning to `CC(=O)Nc1csc2c1C(=O)N([C@H](CS(C)(=O)=O)c1ccc3c(c1)OCO3)C2=O` [Compound 23, N-(5-(1-(benzo[d][1,3]dioxol-5-yl)-2-(methylsulfonyl)ethyl)-4,6-dioxo-5,6-dihydro-4H-thieno[2,3-c]pyrrol-3-yl)acetamide], the inhibition at 0.1 µM was in the range of 20 to 40% and the inhibition at 1 µM is 40 to 60%.
The matching figures for `CCOc1cc([C@@H](CS(C)(=O)=O)N2C(=O)c3csc(NC(=O)C(CC)CC)c3C2=O)ccc1OC` [Compound 6]: 40 to 60% and over 60%.
`CCOc1cc([C@@H](CS(C)(=O)=O)N2C(=O)c3csc(NC(=O)C(F)(F)F)c3C2=O)ccc1OC` [Compound 7, (S)—N-(5-(1-(3-ethoxy-4-methoxyphenyl)-2-(methylsulfonyl)ethyl)-4,6-dioxo-5,6-dihydro-4H-thieno[3,4-c]pyrrol-1-yl)-2,2,2-trifluoroacetamide]: the inhibition at 0.1 µM was under 20% and the inhibition at 1 µM was under 20%.
Consider `CCOc1cc([C@@H](CS(C)(=O)=O)N2C(=O)c3scc(NC(=O)C(F)(F)F)c3C2=O)ccc1OC` [Compound 9, (S)—N-(5-(1-(3-ethoxy-4-methoxyphenyl)-2-(methylsulfonyl)ethyl)-4,6-dioxo-5,6-dihydro-4H-thieno[2,3-c]pyrrol-3-yl)-2,2,2-trifluoroacetamide], for which the inhibition at 0.1 µM was under 20% and the inhibition at 1 µM fell in the range of 40 to 60%.
`CCOc1cc([C@@H](CS(C)(=O)=O)N2C(=O)c3csc(NC(=O)C4CC4)c3C2=O)ccc1OC` [Compound 8, (S)—N-(5-(1-(3-ethoxy-4-methoxyphenyl)-2-(methylsulfonyl)ethyl)-4,6-dioxo-5,6-dihydro-4H-thieno[3,4-c]pyrrol-1-yl)cyclopropanecarboxamide]: the inhibition at 0.1 µM is under 20% and the inhibition at 1 µM is over 60%.
On to `CC(=O)Nc1csc2c1C(=O)N([C@H](CS(C)(=O)=O)c1ccc3c(c1)OCO3)C2=O` [Compound 24, N-(5-(1-(benzo[d][1,3]dioxol-5-yl)-2-(methylsulfonyl)ethyl)-4,6-dioxo-5,6-dihydro-4H-thieno[2,3-c]pyrrol-3-yl)acetamide], for which the “% TNFα Inhibition (0.1 μM)” value is given as “D (D = a single percent inhibition value <20%)” and the “% TNFα Inhibition (1 μM)” value was “D (D = a single percent inhibition value <20%)”.
For `CCOc1cc([C@@H](CS(=O)(=O)N(C)C)N2C(=O)c3csc(NC(C)=O)c3C2=O)ccc1OC` [Compound 15, (S)—N-(5-(2-(N,N-dimethylsulfamoyl)-1-(3-ethoxy-4-methoxyphenyl)ethyl)-4,6-dioxo-5,6-dihydro-4H-thieno[3,4-c]pyrrol-1-yl)acetamide], the inhibition at 0.1 µM is under 20% and the inhibition at 1 µM was under 20%.
As for `CS(=O)(=O)C[C@H](c1ccc2c(c1)OCO2)N1C(=O)c2scc(NC(=O)C(F)(F)F)c2C1=O` [Compound 21, N-(5-(1-(benzo[d][1,3]dioxol-5-yl)-2-(methylsulfonyl)ethyl)-4,6-dioxo-5,6-dihydro-4H-thieno[2,3-c]pyrrol-3-yl)-2,2,2-trifluoroacetamide], the inhibition at 0.1 µM was under 20% and the inhibition at 1 µM was under 20%.
As for `CCOc1cc([C@@H](CS(C)(=O)=O)N2C(=O)c3csc(N(C(=O)C4CC4)C(=O)C4CC4)c3C2=O)ccc1OC` [Compound 4], the inhibition at 0.1 µM was under 20% and the inhibition at 1 µM was in the range of 40 to 60%.
As to `COCC(=O)Nc1csc2c1C(=O)N([C@H](CS(C)(=O)=O)c1ccc3c(c1)OCO3)C2=O` [Compound 25, N-(5-(1-(benzo[d][1,3]dioxol-5-yl)-2-(methylsulfonyl)ethyl)-4,6-dioxo-5,6-dihydro-4H-thieno[2,3-c]pyrrol-3-yl)-2-methoxy acetamide], the inhibition at 0.1 µM is under 20% and the inhibition at 1 µM is 20 to 40%.
The corresponding values for `CC(=O)Nc1scc2c1C(=O)N([C@H](CS(C)(=O)=O)c1ccc3c(c1)OCCO3)C2=O` [Compound 14, N-(5-(1-(2,3-dihydrobenzo[b][1,4]dioxin-6-yl)-2-(methylsulfonyl)ethyl)-4,6-dioxo-5,6-dihydro-4H-thieno[3,4-c]pyrrol-1-yl) acetamide] are under 20% and under 20%.
Turning to `CCOc1cc([C@@H](CS(C)(=O)=O)N2C(=O)c3csc(NC(=O)C(C)C(F)(F)F)c3C2=O)ccc1OC` (stereo partly drawn) [Compound 5, N-(5-((S)-1-(3-ethoxy-4-methoxyphenyl)-2-(methylsulfonyl)ethyl)-4,6-dioxo-5,6-dihydro-4H-thieno[3,4-c]pyrrol-1-yl)-3,3,3-trifluoro-2-methylpropanamide], the inhibition at 0.1 µM lay within 20 to 40% and the inhibition at 1 µM was over 60%.
Consider `CCOc1cc([C@@H](CS(C)(=O)=O)N2C(=O)c3csc(NC(C)=O)c3C2=O)ccc1OC` [Compound 1, (S)—N-(5-(1-(3-ethoxy-4-methoxyphenyl)-2-(methylsulfonyl)ethyl)-4,6-dioxo-5,6-dihydro-4H-thieno[3,4-c]pyrrol-1-yl)acetamide], for which the inhibition at 0.1 µM is 40 to 60% and the inhibition at 1 µM is over 60%.
Regarding `CS(=O)(=O)C[C@H](c1ccc2c(c1)OCO2)N1C(=O)c2scc(NC(=O)C(F)(F)F)c2C1=O` [Compound 22, N-(5-(1-(benzo[d][1,3]dioxol-5-yl)-2-(methylsulfonyl)ethyl)-4,6-dioxo-5,6-dihydro-4H-thieno[2,3-c]pyrrol-3-yl)-2,2,2-trifluoroacetamide], the “% TNFα Inhibition (0.1 μM)” value was “C (C = a single percent inhibition value ≤40% and >20%)”; the “% TNFα Inhibition (1 μM)” value is “C (C = a single percent inhibition value ≤40% and >20%)”.

By inhibition is commonly meant the relative decrease from the control value, in per cent.
